The values below come from patent US20070172424A1, “Enabling drug adherence through closed loop monitoring & communication” (priority 2006, published 2007).

For data set [1] the following is noted: rats, within 24 hours of administration; cited from earlier work.
The conditions of data set [2]: in vivo. The procedure:
The ability to detect the blood concentration of a pain reliever, such as liquid acetaminophen in the blood stream by measuring a tracer is described. The research is carried out by two researchers A & B.
10 ml liquid cough medicine (acetaminophen) 10 ml of 80 proof vodka
Researcher “A” combines the liquid cough medicine together with the vodka in a common flask. “A” stirs until mixed. “A” gives the mixture to the study subject to consume orally. Waits 30 minutes. Subject breathes into breathalyzer, “A” extracts blood sample. “A” repeats both measurements 8 more times at 30 minute intervals. “A” compares alcohol readings with a PK curve for alcohol; compares mass spectrometer analysis of blood for the presence of acetaminophen with a PK curve for acetaminophen.
The standard PK curves for alcohol & acetaminophen are provided to “B”, and he is told the must analyze one reading that was taken 2 hours after ingestion, and determine whether the alcohol reading was within the anticipated range of PK curve. He is given the alcohol breathalyzer result for 2 hours after ingestion.

With `CC(C)=CCCC(C)=CC=O` [Citral], in data set [1], the “fraction of the given dose excreted in urine” value is listed as 50%.
As to `CCO` [alcohol], the “2-hour breathalyzer reading versus anticipated range of PK curve” value in data set [2] is reported as “fall within statistical range”. The “PK results versus standard PK curve for alcohol” value in data set [2] (po) is “fall within range of the standard PK curve”.
On to `CC(=O)Nc1ccc(O)cc1` [acetaminophen], for which the “PK results versus standard PK curve for acetaminophen” value in data set [2] (po) is on record as “fall within range of the standard PK curve”.
